Columns and labels:
Format in all cases: functional, cell-based
CP50-MEL-B = test: cells; conditions: Homo sapiens;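 also: growth inhibition of the human cell line, measured with a cell viability read-out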
Description: SANGER: Inhibition of human CP50-MEL-B cell growth in a cell viability assay.

Ca-Ski = test: cells; conditions: Homo sapiens;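 also: cell viability assay measuring inhibition of Ca-Ski cell growth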
Description: SANGER: Inhibition of human Ca-Ski cell growth in a cell viability assay.

CaR-1 = test: cells; conditions: Homo sapiens;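 also: growth inhibition of human CaR-1 cancer cells, read out with a cell viability assay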
Description: SANGER: Inhibition of human CaR-1 cell growth in a cell viability assay.

D-542MG = test: cells; conditions: Homo sapiens
Description: SANGER: Inhibition of human D-542MG cell growth in a cell viability assay.

Detroit 562 = test: cells; conditions: Homo sapiens;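 also: growth inhibition of human Detroit 562 cells, read out by a cell viability assay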
Description: SANGER: Inhibition of human Detroit562 cell growth in a cell viability assay.

EB2 = test: cells; conditions: Homo sapiens;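 also: growth inhibition of EB2 cells, read out with a cell viability assay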
Description: SANGER: Inhibition of human EB2 cell growth in a cell viability assay.

ECC4 = test: cells; conditions: Homo sapiens;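 also: growth inhibition of ECC4 cells, read out with a cell viability assay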
Description: SANGER: Inhibition of human ECC4 cell growth in a cell viability assay.

EFM-19 = test: cells; conditions: Homo sapiens;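 also: growth inhibition of human EFM-19 cells, measured in a cell viability assay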
Description: SANGER: Inhibition of human EFM-19 cell growth in a cell viability assay.

EGI-1 = test: cells; conditions: Homo sapiens;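 also: cell viability readout used to gauge growth inhibition of EGI-1 cells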
Description: SANGER: Inhibition of human EGI-1 cell growth in a cell viability assay.

EHEB = test: cells; conditions: Homo sapiens;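 also: growth inhibition of human EHEB cells, read out with a cell viability assay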
Description: SANGER: Inhibition of human EHEB cell growth in a cell viability assay.

GDM-1 = test: cells; conditions: Homo sapiens;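 also: cell viability readout used to measure growth inhibition of human GDM-1 cells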
Description: SANGER: Inhibition of human GDM-1 cell growth in a cell viability assay.

HPAF-II = test: cells; conditions: Homo sapiens;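 also: growth inhibition of HPAF-II cells, read out with a cell viability assay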
Description: SANGER: Inhibition of human HPAF-II cell growth in a cell viability assay.

HT-3 = test: cells; conditions: Homo sapiens;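 also: growth inhibition measured with a cell viability readout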
Description: SANGER: Inhibition of human HT-3 cell growth in a cell viability assay.

IM-9 = test: SANGER: Inhibition of human IM-9 cell growth in a cell viability assay.
JIYOYE = test: cells; conditions: Homo sapiens
Description: SANGER: Inhibition of human JiyoyeP-2003 cell growth in a cell viability assay.

K052 = test: cells; conditions: Homo sapiens;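 also: Read-out from a cell viability assay, IC50 reflecting suppression of K052 cell growth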
Description: SANGER: Inhibition of human K052 cell growth in a cell viability assay.

KP-4 = test: cells; conditions: Homo sapiens;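 also: human KP-4 cells, with growth inhibition read out through a cell viability assay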
Description: SANGER: Inhibition of human KP-4 cell growth in a cell viability assay.

KYSE-140 = test: cells; conditions: Homo sapiens;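 also: cell viability assay measuring growth inhibition in human KYSE-140 cells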
Description: SANGER: Inhibition of human KYSE-140 cell growth in a cell viability assay.

KYSE-450 = test: cells; conditions: Homo sapiens;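 also: cell growth inhibition measured by a viability assay in human KYSE-450 cells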
Description: SANGER: Inhibition of human KYSE-450 cell growth in a cell viability assay.

LC4-1 = test: cells; conditions: Homo sapiens;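 also: growth inhibition of LC4-1 cells, read out with a cell viability assay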
Description: SANGER: Inhibition of human LC4-1 cell growth in a cell viability assay.

M059J = test: cells; conditions: Homo sapiens;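 also: growth inhibition of M059J cells, read out with a cell viability assay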
Description: SANGER: Inhibition of human M059J cell growth in a cell viability assay.

NB1 = test: cells; conditions: Homo sapiens;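 also: reduction of NB1 cell proliferation, read out with a viability assay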
Description: SANGER: Inhibition of human NB1 cell growth in a cell viability assay.

NCI-H1963 = test: cells; conditions: Homo sapiens;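 also: cell growth inhibition of the human line, determined with a cell viability assay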
Description: SANGER: Inhibition of human NCI-H1963 cell growth in a cell viability assay.

NCI-H1993 = test: cells; conditions: Homo sapiens;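 also: growth inhibition of the cancer cell line, assessed with a cell viability assay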
Description: SANGER: Inhibition of human NCI-H1993 cell growth in a cell viability assay.

NCI-H2009 = test: cells; conditions: Homo sapiens;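 also: cell viability assay measuring inhibition of NCI-H2009 cell growth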
Description: SANGER: Inhibition of human NCI-H2009 cell growth in a cell viability assay.

NCI-H2081 = test: cells; conditions: Homo sapiens;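 also: growth inhibition of human NCI-H2081 cells, read out with a cell viability assay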
Description: SANGER: Inhibition of human NCI-H2081 cell growth in a cell viability assay.

NCI-H2347 = test: cells; conditions: Homo sapiens;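 also: growth inhibition of the cell line, read out with a cell viability assay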
Description: SANGER: Inhibition of human NCI-H2347 cell growth in a cell viability assay.

NCI-H524 = test: cells; conditions: Homo sapiens;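 also: growth inhibition of human NCI-H524 cells, read out through a cell viability assay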
Description: SANGER: Inhibition of human NCI-H524 cell growth in a cell viability assay.

NCI-H727 = test: cells; conditions: Homo sapiens;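 also: growth inhibition of human NCI-H727 cells, read out with a cell viability assay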
Description: SANGER: Inhibition of human NCI-H727 cell growth in a cell viability assay.

NCI-H748 = test: cells; conditions: Homo sapiens;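 also: growth inhibition of NCI-H748 cells, measured by a cell viability assay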
Description: SANGER: Inhibition of human NCI-H748 cell growth in a cell viability assay.

NCI-H889 = test: cells; conditions: Homo sapiens;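 also: cell growth inhibition of the cell line, read out with a viability assay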
Description: SANGER: Inhibition of human NCI-H889 cell growth in a cell viability assay.

NCI-N87 = test: cells; conditions: Homo sapiens;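 also: growth inhibition of human NCI-N87 cells, read out with a cell viability assay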
Description: SANGER: Inhibition of human NCI-N87 cell growth in a cell viability assay.

OVCAR-8 = test: cells; conditions: Homo sapiens;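 also: growth inhibition of human OVCAR-8 cells, read out by a cell viability assay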
Description: SANGER: Inhibition of human OVCAR-8 cell growth in a cell viability assay.

P12-Ichikawa = test: cells; conditions: Homo sapiens
PF-382 = test: cells; conditions: Homo sapiens
Description: SANGER: Inhibition of human PF-382 cell growth in a cell viability assay.

RERF-LC-MS = test: cells; conditions: Homo sapiens;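 also: growth inhibition of human RERF-LC-MS cells, read out by a cell viability assay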
Description: SANGER: Inhibition of human RERF-LC-MS cell growth in a cell viability assay.

RMG-I = test: cells; conditions: Homo sapiens;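 also: growth inhibition of human RMG-I cells, read out with a cell viability assay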
Description: SANGER: Inhibition of human RMG-I cell growth in a cell viability assay.

RPMI-6666 = test: cells; conditions: Homo sapiens
Description: SANGER: Inhibition of human RPMI-6666 cell growth in a cell viability assay.

RPMI-7951 = test: cells; conditions: Homo sapiens
Description: SANGER: Inhibition of human RPMI-7951 cell growth in a cell viability assay.

RVH-421 = test: cells; conditions: Homo sapiens
Description: SANGER: Inhibition of human RVH-421 cell growth in a cell viability assay.

SK-MEL-24 = test: cells; conditions: Homo sapiens;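 also: growth inhibition read out by a cell viability assay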
Description: SANGER: Inhibition of human SK-MEL-24 cell growth in a cell viability assay.

SK-N-AS = test: cells; conditions: Homo sapiens;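 also: growth inhibition of human SK-N-AS cells, measured with a cell viability assay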
Description: SANGER: Inhibition of human SK-N-AS cell growth in a cell viability assay.

SUP-T1 = test: cells; conditions: Homo sapiens;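 also: growth inhibition of human SUP-T1 cells, read out as cell viability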
Description: SANGER: Inhibition of human SUP-T1 cell growth in a cell viability assay.

SW1463 = test: cells; conditions: Homo sapiens;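 also: growth inhibition of SW1463 cells, determined with a cell viability assay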
Description: SANGER: Inhibition of human SW1463 cell growth in a cell viability assay.

SW948 = test: cells; conditions: Homo sapiens;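 also: growth inhibition of SW948 cells, read out with a cell viability assay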
Description: SANGER: Inhibition of human SW948 cell growth in a cell viability assay.

T47D = test: cells; conditions: Homo sapiens;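 also: growth inhibition of human T47D cells, measured with a cell viability assay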
Description: SANGER: Inhibition of human T47D cell growth in a cell viability assay.

T84 = test: cells; conditions: Homo sapiens;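 also: growth inhibition measured with a cell viability readout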
Description: SANGER: Inhibition of human T84 cell growth in a cell viability assay.

769-P = test: cells; conditions: Homo sapiens
Description: SANGER: Inhibition of human 769-P cell growth in a cell viability assay.

AGS = test: cells; conditions: Homo sapiens;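 also: growth inhibition of AGS cells, determined with a cell viability assay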
Description: SANGER: Inhibition of human AGS cell growth in a cell viability assay.

AU565 = test: cells; conditions: Homo sapiens;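 also: cell viability assay measuring growth inhibition of human AU565 cells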
Description: SANGER: Inhibition of human AU565 cell growth in a cell viability assay.

BC-3 = test: cells; conditions: Homo sapiens;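 also: cell viability assay measuring growth inhibition of human BC-3 cells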
Description: SANGER: Inhibition of human BC-3 cell growth in a cell viability assay.

BFTC-909 = test: cells; conditions: Homo sapiens
Description: SANGER: Inhibition of human BFTC-909 cell growth in a cell viability assay.

C32 = test: cells; conditions: Homo sapiens;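 also: cell viability assay, with IC50 reflecting inhibition of C32 cell growth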
Description: SANGER: Inhibition of human C32 cell growth in a cell viability assay.

CAL-51 = test: cells; conditions: Homo sapiens;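 also: human CAL-51 cell line, growth inhibition read out via a cell viability assay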
Description: SANGER: Inhibition of human CAL-51 cell growth in a cell viability assay.

CAL-85-1 = test: cells; conditions: Homo sapiens;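 also: growth inhibition of human CAL-85-1 cells, read out with a cell viability assay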
Description: SANGER: Inhibition of human CAL-85-1 cell growth in a cell viability assay.

TGW = test: cells; conditions: Homo sapiens;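 also: growth inhibition of human TGW cells, read out with a cell viability assay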
Description: SANGER: Inhibition of human TGW cell growth in a cell viability assay.

THP-1 = test: cells; conditions: Homo sapiens;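 also: growth inhibition of THP-1 cells, read out via a cell viability assay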
Description: SANGER: Inhibition of human THP-1 cell growth in a cell viability assay.

TYK-nu = test: cells; conditions: Homo sapiens;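 also: growth inhibition of human TYK-nu cells, read out by a cell viability assay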
Description: SANGER: Inhibition of human TYK-nu cell growth in a cell viability assay.

UO-31 = test: cells; conditions: Homo sapiens
Description: SANGER: Inhibition of human U031 cell growth in a cell viability assay.

U-251 = test: cells; conditions: Homo sapiens;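 also: growth inhibition of human U-251 cells, read out through a cell viability assay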
Description: SANGER: Inhibition of human U251 cell growth in a cell viability assay.

UACC-812 = test: cells; conditions: Homo sapiens
Description: SANGER: Inhibition of human UACC-812 cell growth in a cell viability assay.

UACC-893 = test: cells; conditions: Homo sapiens
Description: SANGER: Inhibition of human UACC-893 cell growth in a cell viability assay.

VMRC-RCZ = test: cells; conditions: Homo sapiens
Description: SANGER: Inhibition of human VMRC-RCZ cell growth in a cell viability assay.

WSU-NHL = test: cells; conditions: Homo sapiens;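 also: growth inhibition of human WSU-NHL cells, read out with a cell viability assay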
Description: SANGER: Inhibition of human WSU-NHL cell growth in a cell viability assay.

YAPC = test: cells; conditions: Homo sapiens
Description: SANGER: Inhibition of human YAPC cell growth in a cell viability assay.

COLO-679 = test: cells; conditions: Homo sapiens
Description: SANGER: Inhibition of human COLO-679 cell growth in a cell viability assay.

`N#C/C(=C1/Nc2ccccc2S1)c1ccnc(NCCc2cccnc2)n1` gave an IC50 (CP50-MEL-B) greater than 8 µM, an IC50 (Ca-Ski) greater than 8 µM and an IC50 (CaR-1) greater than 8 µM. It also gave an IC50 (D-542MG) greater than 8 µM, an IC50 (Detroit 562) of 7.08 µM and an IC50 (EB2) greater than 8 µM. It also gave an IC50 (ECC4) greater than 8 µM, an IC50 (EFM-19) of 5.39 µM and an IC50 (EGI-1) greater than 8 µM. The IC50 (EHEB) was greater than 8 µM, the IC50 (GDM-1) was greater than 8 µM and the IC50 (HPAF-II) was greater than 8 µM. For the same compound, the IC50 (HT-3) was greater than 8 µM, the IC50 (IM-9) was greater than 8 µM and the IC50 (JIYOYE) was greater than 8 µM. For the same compound, the IC50 (K052) was greater than 8 µM, the IC50 (KP-4) was 6.43 µM and the IC50 (KYSE-140) was 1.41 µM. It also gave an IC50 (KYSE-450) of 1.14 µM, an IC50 (LC4-1) of 7.65 µM and an IC50 (M059J) greater than 8 µM. For the same compound, the IC50 (NB1) was greater than 8 µM, the IC50 (NCI-H1963) was greater than 8 µM and the IC50 (NCI-H1993) was greater than 8 µM. The IC50 (NCI-H2009) was greater than 8 µM, the IC50 (NCI-H2081) was greater than 8 µM and the IC50 (NCI-H2347) was greater than 8 µM. It also gave an IC50 (NCI-H524) greater than 8 µM, an IC50 (NCI-H727) of 0.893 µM and an IC50 (NCI-H748) greater than 8 µM. For the same compound, the IC50 (NCI-H889) was greater than 8 µM, the IC50 (NCI-N87) was greater than 8 µM and the IC50 (OVCAR-8) was greater than 8 µM. The IC50 (P12-Ichikawa) was greater than 8 µM, the IC50 (PF-382) was greater than 8 µM and the IC50 (RERF-LC-MS) was greater than 8 µM. It also gave an IC50 (RMG-I) greater than 8 µM, an IC50 (RPMI-6666) greater than 8 µM and an IC50 (RPMI-7951) greater than 8 µM. For the same compound, the IC50 (RVH-421) was greater than 8 µM, the IC50 (SK-MEL-24) was greater than 8 µM and the IC50 (SK-N-AS) was greater than 8 µM. The IC50 (SUP-T1) was greater than 8 µM, the IC50 (SW1463) was greater than 8 µM and the IC50 (SW948) was greater than 8 µM. It also gave an IC50 (T47D) greater than 8 µM, an IC50 (T84) of 3.86 µM and an IC50 (769-P) greater than 8 µM. It also gave an IC50 (AGS) greater than 8 µM, an IC50 (AU565) of 2.55 µM and an IC50 (BC-3) of 7.46 µM. The IC50 (BFTC-909) was greater than 8 µM, the IC50 (C32) was greater than 8 µM and the IC50 (CAL-51) was 5.3 µM. The IC50 (CAL-85-1) was 1.5 µM, the IC50 (TGW) was greater than 8 µM and the IC50 (THP-1) was 5.33 µM. The IC50 (TYK-nu) was 1.75 µM, the IC50 (UO-31) was 7.2 µM and the IC50 (U-251) was greater than 8 µM. The IC50 (UACC-812) was greater than 8 µM, the IC50 (UACC-893) was greater than 8 µM and the IC50 (VMRC-RCZ) was 7.77 µM. For the same compound, the IC50 (WSU-NHL) was greater than 8 µM, the IC50 (YAPC) was greater than 8 µM and the IC50 (COLO-679) was greater than 8 µM.

`CO[C@@]12[C@H](COC(N)=O)C3=C(C(=O)C(C)=C(N)C3=O)N1C[C@@H]1N[C@@H]12` [MITOMYCIN] gave an IC50 (CP50-MEL-B) of 0.78 µM, an IC50 (Ca-Ski) of 0.0538 µM and an IC50 (CaR-1) of 0.469 µM. The IC50 (D-542MG) was 0.602 µM, the IC50 (Detroit 562) was 0.17 µM and the IC50 (EB2) was 0.0654 µM. For the same compound, the IC50 (ECC4) was 5.07 µM, the IC50 (EFM-19) was 2.09 µM and the IC50 (EGI-1) was 2.39 µM. It also gave an IC50 (EHEB) of 0.672 µM, an IC50 (GDM-1) of 0.377 µM and an IC50 (HPAF-II) of 1.1 µM. The IC50 (HT-3) was less than 0.0625 µM, the IC50 (IM-9) was 0.0562 µM and the IC50 (JIYOYE) was 0.63 µM. It also gave an IC50 (K052) of 0.149 µM, an IC50 (KYSE-140) of 0.381 µM and an IC50 (KYSE-450) of 0.563 µM. The IC50 (LC4-1) was 1.24 µM, the IC50 (M059J) was 0.101 µM and the IC50 (NB1) was 0.187 µM. For the same compound, the IC50 (NCI-H1963) was 0.974 µM, the IC50 (NCI-H1993) was greater than 16 µM and the IC50 (NCI-H2009) was 0.289 µM. The IC50 (NCI-H2081) was 0.741 µM, the IC50 (NCI-H2347) was 0.85 µM and the IC50 (NCI-H524) was 2.7 µM. It also gave an IC50 (NCI-H727) of 0.212 µM, an IC50 (NCI-H748) of 0.0595 µM and an IC50 (NCI-H889) of 2.48 µM. It also gave an IC50 (NCI-N87) of 0.438 µM, an IC50 (OVCAR-8) of 0.176 µM and an IC50 (P12-Ichikawa) of less than 0.0625 µM. The IC50 (PF-382) was 0.251 µM, the IC50 (RERF-LC-MS) was 1.03 µM and the IC50 (RMG-I) was 3.46 µM. The IC50 (RPMI-6666) was 0.22 µM, the IC50 (RPMI-7951) was 0.168 µM and the IC50 (RVH-421) was 0.629 µM. It also gave an IC50 (SK-MEL-24) of 1.37 µM, an IC50 (SK-N-AS) of 1.79 µM and an IC50 (SUP-T1) of 0.11 µM. For the same compound, the IC50 (SW1463) was 2.08 µM, the IC50 (SW948) was 3.75 µM and the IC50 (T47D) was 6.37 µM. The IC50 (T84) was 0.173 µM, the IC50 (769-P) was less than 0.0625 µM and the IC50 (AGS) was 0.106 µM. For the same compound, the IC50 (AU565) was 0.501 µM, the IC50 (BC-3) was 0.212 µM and the IC50 (BFTC-909) was 0.0853 µM. It also gave an IC50 (C32) of 1.53 µM, an IC50 (CAL-51) of 0.0309 µM and an IC50 (CAL-85-1) of 0.0659 µM. For the same compound, the IC50 (TGW) was 2.76 µM, the IC50 (THP-1) was 0.596 µM and the IC50 (TYK-nu) was 0.0587 µM. For the same compound, the IC50 (UO-31) was 0.366 µM, the IC50 (U-251) was 0.129 µM and the IC50 (UACC-812) was greater than 16 µM. For the same compound, the IC50 (UACC-893) was 0.418 µM, the IC50 (VMRC-RCZ) was 0.199 µM and the IC50 (WSU-NHL) was 0.192 µM. For the same compound, the IC50 (YAPC) was 4.37 µM and the IC50 (COLO-679) was 0.0902 µM.
